Laboratory results as given in the NIST ThermoML archive (doi:10.1016/j.jct.2006.05.012).

Experiments:
[1] = 298.15 K; 101 kPa; Liquid
[2] = xn = mol fraction of the nth substance listed; settings: 298.15 K, 101 kPa, Liquid

C=C(C)C(=O)OC [methyl methacrylate]
Settings | mass density [kg/m3]
[1] | 937.65

C=CC(=O)OCCCC [butyl 2-propenoate]
Settings | mass density [kg/m3]
[1] | 893.96

C=C(C)C(=O)OC [methyl methacrylate] + C=CC(=O)OCCCC
Settings | mass density [kg/m3]
[2], x2 = 0 | 937.65

Cc1ccccc1 [toluene] + C=C(C)C(=O)OC
Settings | mass density [kg/m3]
[2], x1 = 1 | 862.11

C=CC(=O)OCCCC [butyl 2-propenoate] + C=C(C)C(=O)OC
[2]
Settings | mass density [kg/m3]
x1 = 0.025 | 936.15
x1 = 0.0501 | 934.64
x1 = 0.1001 | 931.77
x1 = 0.1502 | 929.01
x1 = 0.2 | 926.33
x1 = 0.25 | 923.76
x1 = 0.2946 | 921.53
x1 = 0.3498 | 918.85
x1 = 0.3992 | 916.57
x1 = 0.45 | 914.28
x1 = 0.4999 | 912.12
x1 = 0.5499 | 910.04
x1 = 0.5999 | 908.01
x1 = 0.644 | 906.27
x1 = 0.6991 | 904.19
x1 = 0.7499 | 902.33
x1 = 0.8002 | 900.52
x1 = 0.8504 | 898.81
x1 = 0.8994 | 897.15
x1 = 0.9499 | 895.53
x1 = 0.9749 | 894.72
x1 = 1 | 893.96

Cc1ccccc1 [toluene] + C=CC(=O)OCCCC
Settings | mass density [kg/m3]
[2], x1 = 1 | 862.11

Cc1ccccc1 [toluene]
Settings | mass density [kg/m3]
[1] | 862.11

C=C(C)C(=O)OC [methyl methacrylate] + Cc1ccccc1
[2]
Settings | mass density [kg/m3]
x2 = 0 | 937.646
x2 = 0.0249 | 935.719
x2 = 0.0501 | 933.759
x2 = 0.1005 | 929.859
x2 = 0.15 | 926.06
x2 = 0.1994 | 922.3
x2 = 0.2497 | 918.45
x2 = 0.3001 | 914.63
x2 = 0.35 | 910.852
x2 = 0.3998 | 907.089
x2 = 0.4501 | 903.299
x2 = 0.5 | 899.556
x2 = 0.5501 | 895.803
x2 = 0.5979 | 892.219
x2 = 0.6486 | 888.421
x2 = 0.6998 | 884.596
x2 = 0.7499 | 880.84
x2 = 0.794 | 877.532
x2 = 0.8481 | 873.485
x2 = 0.9 | 869.606
x2 = 0.95 | 865.864
x2 = 0.9731 | 864.133

C=CC(=O)OCCCC [butyl 2-propenoate] + Cc1ccccc1
[2]
Settings | mass density [kg/m3]
x2 = 0 | 893.955
x2 = 0.0255 | 893.406
x2 = 0.0508 | 892.895
x2 = 0.0999 | 891.775
x2 = 0.1509 | 890.523
x2 = 0.2006 | 889.277
x2 = 0.2506 | 887.998
x2 = 0.2996 | 886.7
x2 = 0.3597 | 885.033
x2 = 0.4006 | 883.858
x2 = 0.4504 | 882.402
x2 = 0.5015 | 880.847
x2 = 0.55 | 879.307
x2 = 0.6006 | 877.659
x2 = 0.6502 | 875.977
x2 = 0.7003 | 874.219
x2 = 0.7501 | 872.408
x2 = 0.8 | 870.53
x2 = 0.8499 | 868.551
x2 = 0.9001 | 866.487
x2 = 0.95 | 864.338
x2 = 0.9751 | 863.216
